Results from BindingDB's records for patent US20240010684 (Bayer Aktiengesellschaft, 2024).
Where a SMILES comes first, the peptide text is derived from it. Bridges are numbered along the chain shown (N, C = ends). [ ]: non-standard residue; d: D form. Oic = O=C(O)[C@@H]1C[C@@H]2CCCC[C@@H]2N1; Pen = CC(C)(S)[C@H](N)C(=O)O

Legend:
[1] = biological target: T1, Mannan-binding lectin serine protease 1 (Homo sapiens, UniProt P48740); experiment: Biochemical Human MASP1 Assay
T1 sequence (P48740 whole entry): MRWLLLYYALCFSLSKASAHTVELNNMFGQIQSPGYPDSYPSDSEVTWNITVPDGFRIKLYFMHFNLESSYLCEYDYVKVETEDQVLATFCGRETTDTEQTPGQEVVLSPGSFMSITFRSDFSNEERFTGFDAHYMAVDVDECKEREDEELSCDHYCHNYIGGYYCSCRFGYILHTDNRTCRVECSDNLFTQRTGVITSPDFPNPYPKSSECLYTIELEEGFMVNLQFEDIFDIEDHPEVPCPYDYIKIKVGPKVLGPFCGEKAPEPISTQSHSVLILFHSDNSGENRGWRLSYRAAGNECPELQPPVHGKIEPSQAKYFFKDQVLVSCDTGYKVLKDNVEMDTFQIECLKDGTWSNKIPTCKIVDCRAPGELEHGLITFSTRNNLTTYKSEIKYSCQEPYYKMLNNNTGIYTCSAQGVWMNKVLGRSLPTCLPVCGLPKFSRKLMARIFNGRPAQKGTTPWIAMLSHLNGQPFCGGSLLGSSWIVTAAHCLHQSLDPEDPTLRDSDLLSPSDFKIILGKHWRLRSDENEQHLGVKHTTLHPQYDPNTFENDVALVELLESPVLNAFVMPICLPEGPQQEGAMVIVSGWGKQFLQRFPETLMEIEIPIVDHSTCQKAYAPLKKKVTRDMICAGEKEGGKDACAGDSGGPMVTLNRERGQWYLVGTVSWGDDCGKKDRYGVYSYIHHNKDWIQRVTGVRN
Description: Recombinant human MASP1 enzyme produced in the HEK 293 cells was diluted in the reaction buffer (50 mM HEPES pH 8,0; 100 mM NaCl; 0,01% CHAPS; 0.5 mM Gluthathione) to the concentration of 20 nM and 25 μl was transferred into each single well of 384-well white microtiter plate (Greiner Bio One 781075). 1 μl of the inhibitor compound solution (dissolved in DMSO, at the corresponding concentration) or pure DMSO as a control was added to the same wells. The enzymatic reaction was initiated by addition of 25 μl of 20 μM solution of the FRET substrate ABZ-[…]-Lys (Dnp)-NH2; (ABZ-2-aminobenzoyl; DNP 2,4-dinitrophenyl; custom synthesis by Jerini Peptide Technologies, Berlin) in the reaction buffer. The microtiter plate was incubated for 60-120 min at the temperature of 32 C. The increase of fluorescence intensity was measured in appropriate fluorescence plate reader (e.g. TECAN Ultra) using excitation wavelength of 320 nm and emission wavelength of 420 nm. IC50 values were calculated from percentage of inhibition of human MASP1 activity as a function of test compound concentration.

[2] = biological target: Mannan-binding lectin serine protease 2 (Homo sapiens, UniProt O00187); experiment: Biochemical Human MASP2 Assay
Chain of Mannan-binding lectin serine protease 2 (Homo sapiens, UniProt O00187) (O00187 16-444 limits assumed): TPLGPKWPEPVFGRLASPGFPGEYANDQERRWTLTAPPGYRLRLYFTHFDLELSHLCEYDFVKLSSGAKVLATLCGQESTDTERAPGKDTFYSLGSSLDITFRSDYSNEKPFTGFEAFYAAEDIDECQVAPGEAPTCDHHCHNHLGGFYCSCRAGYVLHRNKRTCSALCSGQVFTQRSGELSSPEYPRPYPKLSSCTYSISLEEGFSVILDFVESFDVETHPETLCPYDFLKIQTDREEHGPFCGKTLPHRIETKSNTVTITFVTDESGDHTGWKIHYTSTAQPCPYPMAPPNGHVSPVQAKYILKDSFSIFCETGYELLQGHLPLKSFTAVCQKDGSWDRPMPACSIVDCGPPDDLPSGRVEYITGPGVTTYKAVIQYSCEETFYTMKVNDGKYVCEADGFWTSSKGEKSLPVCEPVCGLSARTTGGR
Chain of Mannan-binding lectin serine protease 2 (Homo sapiens, UniProt O00187) (O00187 445-686 limits assumed): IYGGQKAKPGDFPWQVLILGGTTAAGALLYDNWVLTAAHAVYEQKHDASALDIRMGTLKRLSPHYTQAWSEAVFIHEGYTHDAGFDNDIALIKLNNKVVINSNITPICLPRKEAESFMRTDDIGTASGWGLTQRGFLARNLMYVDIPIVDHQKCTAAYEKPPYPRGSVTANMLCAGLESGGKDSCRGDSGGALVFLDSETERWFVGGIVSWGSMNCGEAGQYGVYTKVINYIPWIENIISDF
Description: Recombinant human MASP2 enzyme produced in the HEK 293 cells was diluted in the reaction buffer (50 mM HEPES pH 8,0; 100 mM NaCl; 0,01% CHAPS; 0.5 mM Gluthathione) to the concentration of 20 nM and 25 μl was transferred into each single well of 384-well white microtiter plate (Greiner Bio One 781075). 1 μl of the inhibitor compound solution (dissolved in DMSO, at the corresponding concentration) or pure DMSO as a control was added to the same wells. The enzymatic reaction was initiated by addition of 25 μl of 60 μM solution of the FRET substrate DABCYL-[…]-Glu(EDANS) NH2; (Dabcyl-4-((4-(dimethylamino)phenyl)azo)benzoic acid; Edans-5-[(2-Aminoethyl) amino]naphthalene-1-sulfonyl; custom synthesis by Jerini Peptide Technologies, Berlin) in the reaction buffer. The microtiter plate was incubated for 60-120 min at the temperature of 32 C.

[3] = biological target: T2, Mannan-binding lectin serine protease 1 (Rattus norvegicus, UniProt Q8CHN8); experiment: Biochemical Rat MASP1 Assay
T2 sequence (Q8CHN8 whole entry): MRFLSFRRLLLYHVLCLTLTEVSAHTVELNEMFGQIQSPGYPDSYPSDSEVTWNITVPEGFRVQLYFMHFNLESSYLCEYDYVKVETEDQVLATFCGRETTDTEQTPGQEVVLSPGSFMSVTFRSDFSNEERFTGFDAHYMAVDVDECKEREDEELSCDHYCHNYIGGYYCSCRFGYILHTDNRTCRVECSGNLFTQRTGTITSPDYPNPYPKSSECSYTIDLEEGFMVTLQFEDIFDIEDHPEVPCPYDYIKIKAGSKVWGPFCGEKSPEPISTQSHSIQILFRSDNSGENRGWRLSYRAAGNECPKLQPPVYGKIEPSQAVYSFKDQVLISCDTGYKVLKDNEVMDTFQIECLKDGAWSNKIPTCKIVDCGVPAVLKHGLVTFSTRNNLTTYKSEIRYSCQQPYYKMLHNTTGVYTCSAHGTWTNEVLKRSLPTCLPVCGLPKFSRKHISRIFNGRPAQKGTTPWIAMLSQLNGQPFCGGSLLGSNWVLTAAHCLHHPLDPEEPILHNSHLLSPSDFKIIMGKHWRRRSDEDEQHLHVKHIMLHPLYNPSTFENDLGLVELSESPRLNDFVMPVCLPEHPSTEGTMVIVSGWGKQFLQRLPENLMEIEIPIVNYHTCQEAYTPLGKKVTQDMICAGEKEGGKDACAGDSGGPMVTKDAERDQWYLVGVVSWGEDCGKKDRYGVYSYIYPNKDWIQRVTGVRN
Description: Recombinant […] produced in the HEK 293 cells was diluted in the reaction buffer (50 mM HEPES pH 8,0; 100 mM NaCl; 0,01% CHAPS; 0.5 mM Gluthathione) to the concentration of 4 nM and 25 μl was transferred into each single well of 384-well white microtiter plate (Greiner Bio One 781075). 1 μl of the inhibitor compound solution (dissolved in DMSO, at the corresponding concentration) or pure DMSO as a control was added to the same wells. The enzymatic reaction was initiated by addition of 25 μl of 40 μM solution of the FRET substrate Dabcyl-[…]-Glu(Edans)-NH2; (Dabcyl-4-((4-(dimethylamino)phenyl)azo)benzoic acid; Edans-5-[(2-Aminoethyl) amino]naphthalene-1-sulfonyl; custom synthesis by Jerini Peptide Technologies, Berlin) in the reaction buffer. The microtiter plate was incubated for 60-120 min at the temperature of 32 C. The increase of fluorescence intensity was measured in appropriate fluorescence plate reader (e.g. TECAN Ultra) using excitation wavelength of 340 nm and emission wavelength of 490 nm. IC50 values were calculated from percentage of inhibition of rat […] activity as a function of test compound concentration.

[4] = biological target: Mannan-binding lectin serine protease 2 (Rattus norvegicus, UniProt Q9JJS8); experiment: Biochemical Rat MASP2 Assay
Chain of Mannan-binding lectin serine protease 2 (Rattus norvegicus, UniProt Q9JJS8) (Q9JJS8 20-443 limits assumed): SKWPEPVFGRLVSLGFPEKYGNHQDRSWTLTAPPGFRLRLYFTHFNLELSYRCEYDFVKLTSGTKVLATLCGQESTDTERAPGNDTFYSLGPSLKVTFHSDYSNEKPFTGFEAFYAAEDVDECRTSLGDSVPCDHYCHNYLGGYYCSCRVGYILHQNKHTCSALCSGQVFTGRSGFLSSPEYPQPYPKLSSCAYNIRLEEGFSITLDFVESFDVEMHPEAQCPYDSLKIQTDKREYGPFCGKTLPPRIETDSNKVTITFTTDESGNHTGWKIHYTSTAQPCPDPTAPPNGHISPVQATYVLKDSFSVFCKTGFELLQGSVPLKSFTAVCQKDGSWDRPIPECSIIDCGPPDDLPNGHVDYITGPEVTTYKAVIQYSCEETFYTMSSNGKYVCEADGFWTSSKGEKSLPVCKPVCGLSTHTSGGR
Chain of Mannan-binding lectin serine protease 2 (Rattus norvegicus, UniProt Q9JJS8) (Q9JJS8 444-685 limits assumed): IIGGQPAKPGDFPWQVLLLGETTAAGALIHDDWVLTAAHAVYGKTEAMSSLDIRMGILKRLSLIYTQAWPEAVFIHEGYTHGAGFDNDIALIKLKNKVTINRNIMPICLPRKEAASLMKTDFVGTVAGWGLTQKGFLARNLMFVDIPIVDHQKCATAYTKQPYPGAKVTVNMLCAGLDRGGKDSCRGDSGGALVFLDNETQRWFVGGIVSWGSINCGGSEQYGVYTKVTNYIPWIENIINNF
Description: 1 μl of the inhibitor compound solution (dissolved in DMSO, at the corresponding concentration) or pure DMSO as a control was added to the same wells. The enzymatic reaction was initiated by addition of 25 μl of 30 μM solution of the FRET substrate Abz-IEGRTSED-(Lys)Dnp-NH2; (ABZ-2-aminobenzoyl; DNP-2,4-dinitrophenyl; custom synthesis by Jerini Peptide Technologies, Berlin) in the reaction buffer. The microtiter plate was incubated for 60-120 min at the temperature of 32 C. The increase of fluorescence intensity was measured in appropriate fluorescence plate reader (e.g. TECAN Ultra) using excitation wavelength of 320 nm and emission wavelength of 420 nm. IC50 values were calculated from percentage of inhibition of rat […] activity as a function of test compound concentration.

Row | IC50 [1] [nM] | IC50 [2] [nM] | IC50 [3] [nM] | IC50 [4] [nM] | SMILES
1 | 8.4 | 77 | 170 | 41 | CC[C@H](C)[C@@H]1NC(=O)CNC(=O)CNC(=O)[C@H](C)NC(=O)[C@H](CC(=O)O)NC(=O)[C@@H]2CCCN2C(=O)[C@H]([C@@H](C)CC)NC(=O)[C@H]2NC(=O)[C@H]([C@@H](C)CC)NC(=O)[C@@H]3C[C@@H]4CCCC[C@@H]4N3C(=O)[C@@H]3CCCN3C(=O)[C@H](CC(C)C)NC(=O)[C@H](CO)NC(=O)[C@H](CCCNC(=N)N)NC(=O)[C@H](CO)NC(=O)[C@H](CSSC2(C)C)NC1=O [US20240010684, Ex. No 92] (cyclo(AGGICSRSLP[Oic]I[Pen]IPD); disulfide 5-13)
2 | 19 | 160 | 170 | – | CC[C@H](C)[C@@H]1NC(=O)CNC(=O)CNC(=O)[C@H](C)NC(=O)[C@@H](CC(=O)O)NC(=O)[C@@H]2CCCN2C(=O)[C@H]([C@@H](C)CC)NC(=O)[C@H]2NC(=O)[C@H]([C@@H](C)CC)NC(=O)[C@@H]3C[C@@H]4CCCC[C@@H]4N3C(=O)[C@@H]3CCCN3C(=O)[C@H](CC(C)C)NC(=O)[C@H](CO)NC(=O)[C@H](CCCNC(=N)N)NC(=O)[C@H](CO)NC(=O)[C@H](CSSC2(C)C)NC1=O [US20240010684, Ex. No 98] (cyclo(AGGICSRSLP[Oic]I[Pen]IP[dD]); disulfide 5-13)
3 | > 3000 | > 3000 | – | 1000 | CC[C@H](C)[C@@H]1NC(=O)[C@@H]2CCCN2C(=O)[C@@H]2CCCN2C(=O)[C@H]([C@@H](C)CC)NC(=O)[C@H](CO)NC(=O)[C@H](CCCCN)NC(=O)[C@H]([C@@H](C)O)NC(=O)[C@@H]2CSSC[C@H](NC1=O)C(=O)N[C@@H](Cc1ccccc1)C(=O)N1CCC[C@H]1C(=O)N[C@@H](CC(=O)O)C(=O)NCC(=O)N[C@@H](CCCNC(=N)N)C(=O)N2 [US20240010684, Ref. No 2]
